Assay results from patent US20130309209A1, “FORMATION OF HEMATOPOIETIC PROGENITOR CELLS FROM MESENCHYMAL STEM CELLS” (Center for Regenerative Medicine of Barcelona, priority 2010, published 2013).

Assays:
[1] = tested on: Human MSCs; assay: Flow cytometry surface staining (CD34, CD45, CD43, CD133) of MSCs undergoing hematopoietic transdetermination; format: cell-based
Source text: The following antibodies were used for flow cytometry and western blotting experiments respectively: mouse anti-human CD34-APC (130-046-703, Miltenyi), mouse anti-human CD45-FITC (130-080-202, Miltenyi), mouse anti-human CD133/2 (293C3)-PE (130-090-853, Miltenyi), mouse anti-human CD43-FITC (560978, BD biosciences), mouse APC isotype control (555751, BD biosciences), mouse FITC isotype control (555748, BD biosciences), The TGFβRI SB431542 (S4317, Sigma-Aldrich) and MEK/ERK U0126 (U120, Sigma-Aldrich) inhibitors were diluted in DMSO accordingly to the manufacturers' instruction and used at a final concentration of 25 and 10 μM respectively during the duration of the experiments with media changes every second day unless otherwise stated. Equal concentration of the solvent alone was used as a negative control.
Human OE-MSC and MSC-AT cells (passage 7) were infected (day 0) with pMX-based retroviruses by spinfection of the cells at 1850 rpm for 1 hour in the presence of polybrene (4 μg/ml). Cells were maintained in the retroviruses-containing media for 12 hours and then the media was removed and replaced by the cell-specific culture medium. Twenty four hours after the first infection (day 1), a second round of infection was performed. The day after (day 2), cells were maintained in their respective media for 24 hours before being switched to a Wicell media containing DMEM/F12 (Invitrogen) supplemented with 20% Knockout Serum Replacement (Invitrogen), 1 mM L-glutamine, 0.1 mM non-essential aminoacids, […] β-mercaptoethanol and 10 ng/ml bFGF.
Human MSCs undergoing hematopoietic transdetermination were harvested at the indicated time points. Cells were washed once with PBS and further incubated with the corresponding antibodies in the presence of FACS blocking buffer (1×PBS/10% FCS) for 1 hour on ice in the absence of light. After incubation, cells were washed three times with 1 ml FACS blocking buffer and resuspended in a total volume of 200 μl prior to analysis. A minimum of 10,000 living cells were analyzed.
2.5 μg of recombinant human Sox2-TAT (110-03T, Peprotech) was added to the culture media every 12 hours prior to analysis of transdetermination.

[2] = tested on: Human MSCs; assay: Western blotting of tyrosine phosphorylation of cellular proteins; format: cell-based; conditions: TGF beta inhibition added to standard transgeneration conditions
Source text: TGF signaling involves a series of serine/threonine phosphorylation events, and its regulation is related to the activity of the MAPK-MEK-ERK pathway, a receptor tyrosine kinase (RTK) activated pathway. Thus, in order to address potential crosstalk involving tyrosine phosphorylation-dependent pathways Applicants investigated the effect of Applicants' different protocols on tyrosine phosphorylation of multiple cellular proteins by western blotting.

[3] = tested on: Human MSCs; assay: Real time PCR (RT-PCR) analysis of hematopoietic and pluripotency marker mRNA; format: cell-based
Description: Total RNA was isolated using Trizol Reagent (Invitrogen) according to the manufacturer's recommendations. 1 μg of DNAse1 (invitrogen) treated total RNA was used for cDNA synthesis using the SuperScript II Reverse Transcriptase kit for RT-PCR (Invitrogen). Real-time PCR was performed using the SYBR-Green PCR Master mix (Applied Biosystems). The levels of expression of respective genes were normalized to corresponding GAPDH values and are shown as fold change relative to the value of the control sample. All the samples were done in triplicate. The sequences correspond to SEQ ID NOs:7-68, and are listed in order, i.e., SEQ ID NO:7 (OCT4 endogenous 5′ oligo), SEQ ID NO:8 (OCT4 endogenous 3′oligo), SEQ ID NO:9 (NANOG 5′ oligo), etc.

[4] = tested on: CD34+ OE-MSC-derived cells; assay: Hematopoietic colony forming assays; format: cell-based, human; conditions: CD34+ cells accumulated during chronic inhibition of TGFβ
Description: Hematopoietic clonogenic assays were performed in 35-mm low adherent plastic dishes (Stem Cell Technologies, Vancouver, BC, Canada) using 1.1 ml/dish of methylcellulose semisolid medium (MethoCult H4434 classic, Stem Cell Technologies) according to the manufacturer's instructions. Briefly, enriched CD34+ OE-MSC-derived cells were sorted and immediately plated at various densities: 1.5×10^3/ml, 3×10^3/ml and 6×10^3/ml. All assays were performed in duplicate. Colony-forming units (CFU) and Burst-forming units (BFU) were scored after 7 to 14 days of incubation according to their colony morphology as erythroid (CFU-E and BFU-E), granulocyte, erythroid, macrophage, megakaryocyte (CFU-GEMM), granulocyte-macrophage (CFU-GM), and macrophage (CFU-M).

SMILES | generation of CD34+ cells ([1]; Sox2 transduction in combination with TGFβRI inhibitor (FIG. 4C)) | newly generated CD45+ cells ([1]; Sox2 transduction in combination with TGFβRI inhibitor, days 2-8 (FIG. 4D)) | generation of CD34+CD45+ and CD45+ cell populations ([1]; in combination with Sox2 transduction, 4 days of transdetermination (FIG. 5E)) | CD34+CD45+ cells ([1]; inhibition of the TGF beta pathway alone during ten days, compared to DMSO control, 25 μM) | CD34+ cells ([1]; inhibition of the TGFβ pathway, no Sox2 transduction, 25 μM) | CD34+ cells ([1]; long-term inhibition of TGF beta pathway during a one month period in culture, compared to standard protocol) | tyrosine phosphorylation of cellular proteins [2] | endogenous Sox2 and Oct4 expression ([3]; chronic inhibition of TGFβ signaling alone (FIG. 4B)) | HPC-related markers at the mRNA level ([3]; chronic inhibition of TGFβ signaling alone, days 2-7 (FIG. 5C)) | early hematopoietic markers GATA2, Runx1, CD43 and CD41 ([3]; inhibition of TGF signaling) | endogenous Sox2 expression ([3]; inhibition of TGF signaling (Example 9)) | multilineage potential of sorted CD34+ cells [4] | early CD34+ progenitors ([1]; chronic inhibition of ERK alone, no ectopic Sox2, 10 μM)
NC(=O)c1ccc(-c2nc(-c3ccc4c(c3)OCO4)c(-c3ccccn3)[nH]2)cc1 [SB431542] | does not impair | significant reduction | significantly abolishes | around 10% | 10-25% | up to 75% | further enhances | sufficient to upregulate | significant upregulation | downregulation | downregulation | retain multilineage potential | –
N#CC(=C(/N)Sc1ccccc1N)/C(C#N)=C(\N)Sc1ccccc1N [U0126] | – | – | – | – | – | – | – | – | – | – | – | – | up to 35%
